Like-named read-outs stand apart in the source and are kept apart here.
What was measured:
PARP1 [1] = target: T1, PARP1 (Homo sapiens (Human), UniProt P09874); assay: PARP enzyme activity assay (PARP1 chemiluminescent assay kit); assay type: biochemical; conditions: enzyme inhibitory activity, read-out: PARP-1 IC50
Text: Experimental Materials: The PARP1 assay kit was purchased from BPS Bioscience, USA, specifically the 384-well chemiluminescent assay kit (Catalog No.: #80551).
Experimental Principle: PARP can catalyze the transfer of ADP-ribose residues from NAD+ to target substrates, thereby modifying proteins through ribosylation. This experiment measures PARP1 enzyme activity by detecting the poly(ADP-ribosylation) of histones by PARP1.
Preparation of Reagents and Test Compounds: The 10× assay buffer included in the kit was diluted to 1× with distilled water. The test compound (stock concentration of 10 mM) was diluted to 10 μM with a DMSO solution and then serially diluted in a 1:3 ratio. The serially diluted compounds were further diluted 10-fold with the 1× assay buffer.
Experimental Method: The procedure was carried out according to the kit's instructions:
1. The 5× histone mixture was diluted to 1× with PBS, and 25 μL was added to each well of a 384-well plate, incubating overnight at 4° C.
2. After incubation, 100 μL of PBST (0.05% Tween 20) was added to each well for washing, repeated three times. Then, 100 μL of blocking solution was added to each well and incubated at room temperature for 90 minutes.
3. After incubation, the wells were washed three times with PBST, and then 1.25 μL of 10× assay buffer, 1.25 μL of 10×PARP assay mixture, 2.5 μL of activation DNA (5×), and 7.5 μL of distilled water were added to each well.
4. […] The positive control group and the negative control group were added with 1× assay buffer containing the same concentration of DMSO.
5. Next, 10 μL of 2.5 ng/μL PARP1 enzyme was added to the test compound and positive control groups, while 10 μL of 1× assay buffer was added to the negative control group, and the mixture was incubated at room temperature for 60 minutes.
6. Streptavidin-HRP was diluted 1:50 with the blocking solution. After incubation, the plate was washed three times with PBST, and 25 μL of the diluted streptavidin-HRP solution was added to each well, incubating at room temperature for 30 minutes.
7. After incubation, the plate was washed three times with PBST, and 50 μL of the mixed substrate A and substrate B in equal volumes was added. The luminescence signal was immediately read on a Synergy HTX multi-mode reader.
(§1) 8. Data analysis was performed using GraphPad Prism 8.0 software. The inhibition rate %=100*(average luminescence signal of the positive control group−luminescence signal of the compound)/(average luminescence signal of the positive control group−average luminescence signal of the negative control group). The IC50 value was obtained by plotting the logarithm of the compound concentration against the percentage inhibition rate.

[2] = tested on: UWB1.289 ovarian cancer cells; assay: Cell proliferation assay, UWB1.289; assay type: cell-based; conditions: UWB1289, 168 h, read-out: UWB1.289 Cell IC50
Experimental: (§2) Experimental Materials: MDA-MB-436 or UWB1.289 cell lines were purchased from Cobioer Biosciences Co. Ltd. (Nanjing, China). The STR identification results were a complete match, and mycoplasma testing was negative. MDA-MB-436 cells were cultured in DMEM complete medium containing 10% fetal bovine serum, 1% penicillin-streptomycin, 1% insulin, and 16 μg/mL glutathione; UWB1.289 cells were cultured in RMPI1640 complete medium containing 10% fetal bovine serum and 1% penicillin-streptomycin.
(§3) 1. MDA-MB-436 or UWB1.289 cells were cultured in the aforementioned medium (culture conditions: 37° C., 5.0% CO2 in air) until they reached the logarithmic growth phase. The cells were then digested with trypsin containing 0.25% EDTA, centrifuged at 1000 rpm, and the supernatant was discarded. Cell culture medium was added, and the cell suspension was adjusted to 2×10^4/mL after counting. 135 μL of the cell suspension per well was taken and cultured in a 96-well cell culture plate for 16 hours (culture conditions: 37° C., 5.0% CO2 in air).
(§4) 2. The test compounds, stored at a concentration of 10 mM, were diluted 2.5 times with DMSO and then serially diluted in a 1:3 gradient (9 gradients). The gradient-diluted samples were further diluted 40 times with serum-free medium, and 15 μL of each was added to the 96-well cell culture plate. The positive control group received serum-free medium containing the same concentration of DMSO, and the negative control group received medium without cells. The cells were then cultured for an additional 7 days.
(§5) 3. After the culture period, the cell culture plate was placed at room temperature for 30 minutes. Then, 100 μL of CellCounting-Lite 2.0 reagent (Vazyme, #DD1101) was added to each well, mixed thoroughly, and incubated in the dark at room temperature for 10 minutes. The luminescence signal was read using a Synergy HTX multi-mode reader.
as §1, with “4. Data” for “8. Data”, “rate (%) was calculated as 100*(average” for “rate %=100*(average”

[3] = Evaluation of pharmacokinetics in mice; conditions: male, ICR (CD1), mouse, plasma, po, 10 mg/kg
Experimental: Test Objective: The pharmacokinetics of the example compounds of the present application were tested in mice. By measuring the drug concentration in mouse plasma, the pharmacokinetic behavior of the compounds of the present invention was studied to evaluate their pharmacokinetic characteristics.
Test Animals: 6-8 Week Old Male ICR (CD1) Mice
Oral Gavage Drug Preparation: An appropriate amount of the test compound was first weighed and dissolved in DMSO (Macklin cas: 67-68-5) to prepare a 20 mg/mL solution. Then, 75 μL of this solution was added to 150 μL of Solutol (Sigma cas: 70142-34-6), followed by 1.275 mL of 20% Captisol (Selleck cas: 182410-00-0), resulting in a final drug concentration of 1 mg/mL.
Intravenous Injection Drug Preparation: An appropriate amount of the test compound was first weighed and dissolved in DMSO (Macklin cas: 67-68-5) to prepare a 30 mg/mL solution. Then, 15 μL of this solution was added to 150 μL of Solutol (Sigma cas: 70142-34-6), followed by 1.335 mL of 20% Captisol (Selleck cas: 182410-00-0), resulting in a final drug concentration of 0.3 mg/mL.
Procedures: The mice were fasted overnight with free access to water before the experiment. Food was restored two hours after dosing. Blood samples were collected at different time points after intravenous injection or oral gavage of the test compound in mice, and the compound concentration in plasma was measured. Approximately 50 μL of blood was collected from each animal using a capillary sampling tube via the orbital venous plexus, with heparin sodium as an anticoagulant. Blood samples were placed on ice, centrifuged at 3500 r/min for 10 minutes to separate the plasma, and 20 μL of the collected plasma was added to 200 μL of acetonitrile (Merck cas: 75-05-8) containing 200 nM dexamethasone (Selleck cas: 50-02-2) as an internal standard. The mixture was centrifuged at 8000 r/min for 20 minutes. After centrifugation, 150 μL of the supernatant was transferred to a new centrifuge tube, and 150 μL of 0.1% formic acid (Fisher cas: 207868) was added. The mixture was mixed well, and 5 μL of the sample was subjected to quantitative analysis by liquid chromatography-mass spectrometry (Q-TOF LC/MS).
The test compound was serially diluted with DMSO to cover the compound concentrations expected in plasma samples to be tested, with a blank sample (containing only DMSO) included.
2 μL of each diluted sample at various concentrations was added to 18 μL of normal ICR mouse plasma, mixed, and then added to 200 μL of acetonitrile (Merck cas: 75-05-8) containing 200 nM dexamethasone (Selleck cas: 50-02-2) as an internal standard. The mixture was centrifuged for 20 minutes (8000 r/min). 150 μL of the supernatant was transferred to a new centrifuge tube, and 150 μL of 0.1% formic acid (Fisher cas: 207868) was added. The mixture was mixed well, and 5 μL of the sample was subjected to quantitative analysis by liquid chromatography-mass spectrometry (Q-TOF LC/MS).
The final standard curve was plotted using the concentration of the test compound after dilution on the abscissa and the ratio of the signal of the compound to the internal standard (dexamethasone) on the ordinate. The standard curve was generated using linear regression with GraphPad Prism 8 software (R2>0.9900).
Data Analysis: calculation of pharmacokinetic parameters: the concentration of the test compound in plasma at different time points after intravenous injection or oral gavage in ICR mice was determined based on the above standard curve, and pharmacokinetic parameters (T1/2, Cmax, AUC, etc.) were calculated using the Phoenix WinNonlin 8.1 non-compartmental analysis model.

[4] = tested on: MDA-MB-436 breast cancer cells; assay: Cell proliferation assay, MDA-MB-436; assay type: cell-based; conditions: Homo sapiens, MDA-MB-436, 168 h, read-out: MDA-MB-436 Cell IC50
Experimental: as §2, §3, §4, §5
as §1, with “4. Data” for “8. Data”, “rate (%) was calculated as 100*(average” for “rate %=100*(average”

[5] = Liver microsome metabolism assay; conditions: CD1, mouse, liver microsomes
Experimental: Experimental Materials: Mixed CD1 mouse liver microsomal enzyme protein was purchased from Xenotech (#M1000), and NADPH was purchased from Abmole (#M9076).
1. To the liver microsomal enzyme reaction system, 210 μL of phosphate buffer was added, followed by 12.5 μL of liver microsomal enzyme at a concentration of 20 mg/mL. Then, 25 μL of NADPH at a concentration of 10 mM was added to the system, mixed well, and incubated in a 37° C. water bath with shaking for 10 minutes.
2. The test compound, stored at a concentration of 10 mM, was diluted to 100 μM with DMSO. Then, 2.5 μL of the diluted test compound was added to the reaction system, mixed well, and incubated in a 37° C. water bath with shaking.
3. At 0.5, 5, 10, 20, 30, and 60 minutes, 25 μL of the enzyme reaction mixture was taken and added to 125 μL of cold acetonitrile containing dexamethasone as an internal standard. The mixture was centrifuged at 4000 g for 20 minutes, and the supernatant was mixed with an equal volume of distilled water. The mixed sample was then subjected to quantitative analysis by liquid chromatography-mass spectrometry.
4. Calculation of in vitro drug metabolism half-life and drug clearance rate:
t1/2=−0.693/k. (k: the slope of the linear regression of the natural logarithm of the percentage of drug remaining versus incubation time).

PARP1 [6] = target: T1, PARP1; assay: PARP1 trapping assay; assay type: biochemical; conditions: read-out: Inhibitory Effect on PARP1 Trapping IC50
Experimental: [table] […] 1. A 4× enzyme reaction mixture, comprising PARP1, PARP2, and GST-Tb antibody, was prepared with the buffer and 4 μL of the enzyme reaction mixture was added to a 384-well plate. 2. A 4×PARP1 and PARP2 probe reaction mixture was prepared with the buffer and 4 μL of the probe reaction mixture was added to the 384-well plate. 3. A series of gradient-diluted compounds were prepared and 4 μL of the diluted compounds were added to the 384-well plate, and incubated at room temperature for 45 minutes. 4. After incubation, 4 μL of 4×NAD reaction mixture was added to the 384-well plate and incubated at room temperature for 10 minutes. 5. After incubation, the plate was read using a plate reader. 6. Data Analysis: The percentage inhibition rate was calculated as follows: Inhibition Rate (%)=(Reading of Compound Group−Reading of Blank Group)/(Reading of Vehicle Control Group−Reading of Blank Group).

T1 sequence (P09874 whole entry): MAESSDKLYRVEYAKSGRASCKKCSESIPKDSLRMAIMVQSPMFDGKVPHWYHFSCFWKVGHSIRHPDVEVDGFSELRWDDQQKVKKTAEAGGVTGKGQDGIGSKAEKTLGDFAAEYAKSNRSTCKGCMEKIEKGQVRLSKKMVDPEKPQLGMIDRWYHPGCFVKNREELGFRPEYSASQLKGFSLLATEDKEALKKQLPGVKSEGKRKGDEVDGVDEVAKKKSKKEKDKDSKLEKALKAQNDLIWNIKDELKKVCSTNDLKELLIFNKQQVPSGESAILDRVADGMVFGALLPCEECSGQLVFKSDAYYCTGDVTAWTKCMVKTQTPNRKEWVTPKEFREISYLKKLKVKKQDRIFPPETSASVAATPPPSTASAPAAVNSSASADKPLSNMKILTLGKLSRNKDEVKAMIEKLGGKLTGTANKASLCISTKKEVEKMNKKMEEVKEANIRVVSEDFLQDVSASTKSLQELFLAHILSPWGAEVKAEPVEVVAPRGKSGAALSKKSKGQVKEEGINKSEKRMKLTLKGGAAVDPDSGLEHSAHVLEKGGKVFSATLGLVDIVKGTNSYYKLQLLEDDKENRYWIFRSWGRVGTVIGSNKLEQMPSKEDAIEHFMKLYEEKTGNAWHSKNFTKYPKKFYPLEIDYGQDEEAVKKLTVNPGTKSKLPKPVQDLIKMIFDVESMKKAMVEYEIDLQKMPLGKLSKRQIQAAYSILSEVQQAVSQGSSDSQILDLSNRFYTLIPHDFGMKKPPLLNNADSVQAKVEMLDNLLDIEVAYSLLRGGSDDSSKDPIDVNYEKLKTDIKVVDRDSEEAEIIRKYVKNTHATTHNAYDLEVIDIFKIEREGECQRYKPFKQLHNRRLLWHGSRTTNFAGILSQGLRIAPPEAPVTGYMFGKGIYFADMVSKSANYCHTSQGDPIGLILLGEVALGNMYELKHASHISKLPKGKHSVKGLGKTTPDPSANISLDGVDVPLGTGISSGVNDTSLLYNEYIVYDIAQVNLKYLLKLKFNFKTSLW

## CNC(=O)c1ccc(N2CCN(Cc3cnc4c(C)c(C(F)(F)F)c(=O)[nH]c4c3)C(COC)C2)cn1 (stereo not shown) [Compound 8, 5-(3-(methoxymethyl)-4-((8-methyl-6-oxo-7-(trifluoromethyl)-5,6-dihydro-1,5-naphthyridin-3-yl)methyl)piperazin-1-yl)-N-methylpicolinamide]
PARP1 [1]
  IC50: 2.55 nM
[2]; proliferation, 7 days
  IC50: 12.6 nM

## CNC(=O)c1ccc(N2CCN(Cc3cnc4c(C)c(C(F)(F)F)c(=O)[nH]c4c3)CC2C)cn1 (stereo not shown) [Compound 10, N-methyl-5-(2-methyl-4-((8-methyl-6-oxo-7-(trifluoromethyl)-5,6-dihydro-1,5-naphthyridin-3-yl)methyl)piperazin-1-yl)picolinamide]
PARP1 [1]
  IC50: 2.79 nM
[2]; proliferation, 7 days
  IC50: 15 nM

## CNC(=O)c1ccc(N2CCN(Cc3cnc4c(C)c(C(F)(F)F)c(=O)[nH]c4c3)C(C)C2)cn1 (stereo not shown) [Compound 11, N-methyl-5-(3-methyl-4-((8-methyl-6-oxo-7-(trifluoromethyl)-5,6-dihydro-1,5-naphthyridin-3-yl)methyl)piperazin-1-yl)picolinamide]
PARP1 [1]
  IC50: 0.96 nM
[2]; proliferation, 7 days
  IC50: 28.5 nM
[3]
  AUC(0-inf): 1500 µg·h/mL
  Cmax: 55900 ng/mL
  half-life: 18.9 h

## CNS(=O)(=O)c1ccc(N2CCN(Cc3cnc4c(C)c(C(F)(F)F)c(=O)[nH]c4c3)CC2)cc1 [Compound 13, N-methyl-4-(4-((8-methyl-6-oxo-7-(trifluoromethyl)-5,6-dihydro-1,5-naphthyridin-3-yl)methyl)piperazin-1-yl)benzenesulfonamide]
PARP1 [1]
  IC50: 7.37 nM

## Cc1c(C(F)(F)F)c(=O)[nH]c2cc(CN3CCN(c4ccc5[nH]c(=O)[nH]c5n4)CC3)cnc12 [Compound 18, 4-methyl-7-((4-(2-oxo-2,3-dihydro-1H-imidazo[4,5-b]pyridin-5-yl)piperazin-1-yl)methyl)-3-(trifluoromethyl)-1,5-naphthyridin-2(1H)-one]
PARP1 [1]
  IC50: 15.9 nM

## Cc1c(C(F)(F)F)c(=O)[nH]c2cc(CN3CCN(c4ncc(C(F)(F)F)cn4)CC3)cnc12 [Compound 19, 4-methyl-3-(trifluoromethyl)-7-((4-(5-(trifluoromethyl)pyrimidin-2-yl)piperazin-1-yl)methyl)-1,5-naphthyridin-2(1H)-one]
PARP1 [1]
  IC50: 5.48 nM

## Cc1c(C(F)(F)F)c(=O)[nH]c2cc(CN3CCN(c4ccc(C#N)cn4)CC3)cnc12 [Compound 20, 6-(4-((8-methyl-6-oxo-7-(trifluoromethyl)-5,6-dihydro-1,5-naphthyridin-3-yl)methyl)piperazin-1-yl)nicotinonitrile]
PARP1 [1]
  IC50: 1.26 nM
[2]; proliferation, 7 days
  IC50: 26.6 nM

## CNC(=O)c1ccc(N2CCN(Cc3cnc4c(C)c(C(F)(F)F)c(=O)[nH]c4c3)C[C@@H]2C)cn1 [Compound 53, (S)—N-methyl-5-(2-methyl-4-((8-methyl-6-oxo-7-(trifluoromethyl)-5,6-dihydro-1,5-naphthyridin-3-yl)methyl)piperazin-1-yl)picolinamide]
[2]; proliferation, 7 days
  IC50: 13.6 nM

## CNC(=O)c1ccc(C2CCN(Cc3cnc4c(C)c(C(F)(F)F)c(=O)[nH]c4c3)CC2)cn1 [Compound 71, N-methyl-5-(1-((8-methyl-6-oxo-7-(trifluoromethyl)-5,6-dihydro-1,5-naphthyridin-3-yl)methyl)piperidin-4-yl)picolinamide]
[2]; proliferation, 7 days
  IC50: 8.13 nM

## CNC(=O)c1ccc(N2CCN(Cc3cnc4c(C)c(C(F)(F)F)c(=O)[nH]c4c3)CC2C#N)cn1 (stereo not shown) [Compound 72, 5-(2-cyano-4-((8-methyl-6-oxo-7-(trifluoromethyl)-5,6-dihydro-1,5-naphthyridin-3-yl)methyl)piperazin-1-yl)-N-methylpicolinamide]
[4]; proliferation, 7 days
  IC50: 8.18 nM
[5]
  microsomal CLint at 1 µM: 0.6 µL/min/mg

## Cc1c(C(F)(F)F)c(=O)[nH]c2cc(CN3CCN(c4cc5c(cn4)C(=O)N(C)C5)CC3)cnc12 [Compound 84, 4-methyl-7-((4-(2-methyl-3-oxo-2,3-dihydro-1H-pyrrolo[3,4-c]pyridin-6-yl)piperazin-1-yl)methyl)-3-(trifluoromethyl)-1,5-naphthyridin-2(1H)-one]
[5]
  microsomal CLint at 1 µM: 0.72 µL/min/mg

## CNC(=O)c1ccc(N2CCN(Cc3cnc4c(C)c(C#N)c(=O)[nH]c4c3)CC2)cn1 [Compound 85, 5-(4-((7-cyano-8-methyl-6-oxo-5,6-dihydro-1,5-naphthyridin-3-yl)methyl)piperazin-1-yl)-N-methylpicolinamide]
[4]; proliferation, 7 days
  IC50: 16.4 nM
[5]
  microsomal CLint at 1 µM: 0.86 µL/min/mg

## CNC(=O)c1ccc(N2CCN(Cc3cnc4c(C)c(C(F)(F)F)c(=O)[nH]c4c3)CC2)c(F)n1 [Compound 93, 6-fluoro-N-methyl-5-(4-((8-methyl-6-oxo-7-(trifluoromethyl)-5,6-dihydro-1,5-naphthyridin-3-yl)methyl)piperazin-1-yl)picolinamide]
PARP1 [6]
  IC50: 1.32 nM
[2]
  IC50: 2.67 nM
[4]
  IC50: 0.83 nM
[3]
  AUC(0-inf): 796 µg·h/mL
  Cmax: 31900 ng/mL
  half-life: 18.4 h

## Cc1c(C(F)(F)F)c(=O)[nH]c2cc(CN3CCN(c4ccc(C(=O)NC5CC5)nc4)CC3)cnc12 [Compound 99, N-cyclopropyl-5-(4-((8-methyl-6-oxo-7-(trifluoromethyl)-5,6-dihydro-1,5-naphthyridin-3-yl)methyl)piperazin-1-yl)picolinamide]
PARP1 [6]
  IC50: 1.53 nM
[4]; proliferation, 7 days
  IC50: 1.69 nM

## CNC(=O)c1ccc(N2CCN(Cc3cnc4c(C)c(C(F)F)c(=O)[nH]c4c3)CC2)cn1 [Compound 100, 5-(4-((7-(difluoromethyl)-8-methyl-6-oxo-5,6-dihydro-1,5-naphthyridin-3-yl)methyl)piperazin-1-yl)-N-methylpicolinamide]
PARP1 [6]
  IC50: 2.58 nM
[4]
  IC50: 2.05 nM

From patent publication US20250051324A1, “PARP INHIBITOR, PHARMACEUTICAL COMPOSITION COMPRISING SAME, AND USE THEREOF” (KEYTHERA (SUZHOU) BIO-PHARMACEUTICALS CO., LIMITED, priority 2021, published 2025)
